Assay results from patent US9422261B2, “Heterocyclic resorcinol derivatives, preparation of same and cosmetic uses thereof” (PIERRE FABRE DERMO-COSMETIQUE, priority 2011, dated 2016).

Tests used:
B16-F10 cells = assay: Assay of melanin in B16-F10 cells stimulated with α-MSH; assay type: cell-based, murine; conditions: 72 hours, 0.1 μM α-MSH; for Melanin assay, in strains B16F10 (%): negative value indicates inhibition; for IC50: Mus musculus, B16-F10, read-out: Melanin assay, in strains B16F10, IC50
Protocol: This test measures melanin synthesis using a colorimetric assay on a murine melanoma cell line: B16-F10. […] B16-F10 cells are seeded in 96-well plates in DMEM medium supplemented with fetal calf serum (FCS) and then incubated for 24 hours at 37° C., 5% CO2. […] Each concentration of active agent is tested at least in triplicate. […] The total proteins are assayed in the lysate and the results are expressed in mg melanin/mg proteins: The percentage of activity is calculated as follows: A negative value indicates inhibition, whereas a positive value indicates induction of melanin synthesis. Biological Material: • B16-F10 cell line between […] (murine melanocytes) (ATCC, CRL-6475)

[1] = Antioxidant ability using chemiluminescence (Photochem, Analytik Jena); conditions: for μg of sample for 1 μg of Trolox: trapping of superoxide anions, chemiluminescence
Source text: This test is used to determine the antioxidant ability of the molecules. It is a method that generates free radicals by a photochemical signal. The intensity of the oxidation is 1000 times greater than that obtained under normal conditions.
Detection is by chemiluminescence. It enables the evaluation of water-soluble and lipid-soluble antioxidant molecules or extracts.
The results are expressed as equivalents of vitamin C or Trolox (6-hydroxy-2,5,7,8-tetramethylchroman-2-carboxylic acid), respectively. The sensitivity is on the order of the nanomole.
The antioxidant activity studied in this test represents the ability to specifically trap superoxide anions by chemiluminescence.
The quantified results are expressed in Trolox equivalents (standard), or “μg of product for 1 μg of Trolox.” This means that a quantity x of sample is needed to obtain activity equivalent to the activity detected for 1 μg of the standard. This represents antioxidant ability relative to a reference, which frees us from concern about the concentration tested.
The superoxide radical (O2°^−) is generated by a photochemical reaction: L+hv(UV)+O2→L*O2→L°^++O2°^− L*: luminol in the excited state L°^+: luminol radical
Some of the superoxide anions are quenched by the antioxidants. The remaining free radicals are quantified by chemiluminescence. L°^++O2°^−→N2+AP*^2−→AP^2−+hv (luminescence) AP*^2−: aminophthalate in the excited state

[2] = Solubility in aqueous phase; assay type: physicochemical; conditions: aqueous phase / aqueous acidic solution
[3] = biological target: tyrosinase polyphenol oxidase (PPO) (Agaricus bisporus, UniProt C7FF04); assay: Tyrosinase inhibition test, polyphenol oxidase (PPO) function, reference molecules; assay type: biochemical, mushroom; conditions: at 25 μM
Protocol: (§1) The substrate, L-tyrosine, is transformed by the monophenol monooxygenase functional group into L-DOPA, itself transformed by the tyrosinase's polyphenol oxidase functional group into dopaquinone. The latter will auto-oxidize into dopachrome, which is measured by spectrophotometry at 490 nm.
(§2) More precisely, it is global tyrosinase activity (MPMOg) that is measured since ultimately it is dopachrome that is assayed. Thus, the products tested in terms of MPMOg (measurement of activity on PPO and MPMO) can accumulate the inhibition of the 2 functional groups; • inhibiting only the MPMO functional group in the strict sense (transformation of tyrosine into DOPA) in addition to the PPO test, • inhibiting only PPO.

[4] = biological target: tyrosinase monophenol monooxygenase (MPMO) (Agaricus bisporus, UniProt C7FF04); assay: biochemical
Protocol: as §1, §2

Chain of tyrosinase monophenol monooxygenase (MPMO) (C7FF04 1-392 limits assumed): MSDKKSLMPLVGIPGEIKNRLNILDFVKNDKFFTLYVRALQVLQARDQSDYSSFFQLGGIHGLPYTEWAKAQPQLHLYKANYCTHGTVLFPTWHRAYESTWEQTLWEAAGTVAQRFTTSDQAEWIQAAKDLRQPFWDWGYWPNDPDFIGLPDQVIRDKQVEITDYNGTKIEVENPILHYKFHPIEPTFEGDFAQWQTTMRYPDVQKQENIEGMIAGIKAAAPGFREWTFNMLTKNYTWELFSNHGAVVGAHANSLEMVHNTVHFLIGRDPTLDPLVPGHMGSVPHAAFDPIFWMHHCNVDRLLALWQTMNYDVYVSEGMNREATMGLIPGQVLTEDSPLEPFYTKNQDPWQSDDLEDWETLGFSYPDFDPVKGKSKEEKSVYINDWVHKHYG
Chain of tyrosinase polyphenol oxidase (PPO) (C7FF04 1-392 limits assumed): as above

For `CC(c1ccccn1)c1ccc(O)cc1O` (stereo not drawn) [Compound 2, 4-(1-(pyridin-2-yl)ethyl)benzene-1,3-diol], the “Melanin assay, in strains B16F10 (%)” value (B16-F10 cells; at 20 μM) was −26% at 20 μM and the “μg of sample for 1 μg of Trolox” value [1] was 10.4 μg of sample for 1 μg of Trolox.

In the case of `CC(c1ccsc1)c1ccc(O)cc1O` (stereo not drawn) [Compound 4, 4-(1-(thiophene-3-yl)ethyl)benzene-1,3-diol], the “Melanin assay, in strains B16F10 (%)” value (B16-F10 cells; at 20 μM) is reported as −52% at 20 μM and the “μg of sample for 1 μg of Trolox” value [1] is reported as 15.4 μg of sample for 1 μg of Trolox.

For `CC(c1cccnc1)c1ccc(O)cc1O` (stereo not drawn) [Compound 3, 4-(1-(pyridin-3-yl)ethyl)benzene-1,3-diol], the “Melanin assay, in strains B16F10 (%)” value (B16-F10 cells; at 20 μM) was −52% at 20 μM, the “μg of sample for 1 μg of Trolox” value [1] was 8.7 μg of sample for 1 μg of Trolox and the “Solubility in aqueous phase” value [2] was “dissolve the active ingredient in aqueous acidic solution”.

In the case of `CCCC(c1cccs1)c1ccc(O)cc1O` (stereo not drawn) [Compound 31, 4-(1-(thiophene-2-yl)butyl)benzene-1,3-diol], the “Melanin assay, in strains B16F10 (%)” value (B16-F10 cells; at 10 μM) is reported as −50% at 10 μM.

With `CC(C)CC(c1cccs1)c1ccc(O)cc1O` (stereo not drawn) [Compound 28, 4-(3-methyl-1-(thiophene-2-yl)butyl)benzene-1,3-diol] the “Melanin assay, in strains B16F10 (%)” value (B16-F10 cells; at 10 μM) was −52% at 10 μM and the melting point was 89.9 °C.

With `CC(c1nccs1)c1ccc(O)cc1O` (stereo not drawn) [Compound 5, 4-(1-(thiazol-2-yl)ethyl)benzene-1,3-diol] the “Melanin assay, in strains B16F10 (%)” value (B16-F10 cells; at 20 μM) was −33% at 20 μM and the “μg of sample for 1 μg of Trolox” value [1] was 11.7 μg of sample for 1 μg of Trolox.

In the case of `O=c1cc(CO)occ1O` [Kojic acid, reference compound], the IC50 (B16-F10 cells) is reported as 2400 µM.

In the case of `O=C(O)CCCC[C@@H]1CCSS1` (racemic) [Lipoic acid, reference compound], the “μg of sample for 1 μg of Trolox (scale used to interpret the results)” value ([1]; reference products of the interpretation scale) is reported as “NEGATIVE”.

For `N[C@@H](CCC(=O)N[C@@H](CS)C(=O)NCC(=O)O)C(=O)O` [Reduced glutathione], the “% inhibition (PPO)” value [3] was 55% and the IC50 ([4]; read-out: IC50 (MPMO), reference molecules for the test, MPMO) was 1 to 2 µM.

Work on `OC[C@H]1O[C@@H](Oc2ccc(O)cc2)[C@H](O)[C@@H](O)[C@@H]1O` [Arbutin, reference compound] yielded an inhibition at 88 µM ([4]; read-out: % inhibition (MPMO)) of 57% and an IC50 (B16-F10 cells) of 158 µM.

In the case of `CC(c1cccs1)c1ccc(O)cc1O` (stereo not drawn) [Compound 1, 4-(1-(thiophene-2-yl)ethyl)benzene-1,3-diol], the “Melanin assay, in strains B16F10 (%)” value (B16-F10 cells; at 20 μM) is reported as −50% at 20 μM and the “μg of sample for 1 μg of Trolox” value [1] is reported as 13.7 μg of sample for 1 μg of Trolox.

With `CC(c1ccccc1)c1ccc(O)cc1O` (stereo not drawn) [4-(1-phenylethyl)benzene-1,3-diol, reference compound] the “Solubility in aqueous phase” value [2] was “insoluble in aqueous phase”.
